{
  "source": "patent US20220016215A1",
  "about": "“GIP RECEPTOR AGONIST PEPTIDE COMPOUNDS AND USES THEREOF” (TAKEDA PHAARMACEUTICAL COMPANY LIMITED, priority 2018, published 2022)",
  "key": {"[1]": {"molecular_target": "T1, human GIPR (Homo sapiens, UniProt P48546)", "T1 construct": "expressed in transfected cells", "T1 sequence (P48546 22-466)": "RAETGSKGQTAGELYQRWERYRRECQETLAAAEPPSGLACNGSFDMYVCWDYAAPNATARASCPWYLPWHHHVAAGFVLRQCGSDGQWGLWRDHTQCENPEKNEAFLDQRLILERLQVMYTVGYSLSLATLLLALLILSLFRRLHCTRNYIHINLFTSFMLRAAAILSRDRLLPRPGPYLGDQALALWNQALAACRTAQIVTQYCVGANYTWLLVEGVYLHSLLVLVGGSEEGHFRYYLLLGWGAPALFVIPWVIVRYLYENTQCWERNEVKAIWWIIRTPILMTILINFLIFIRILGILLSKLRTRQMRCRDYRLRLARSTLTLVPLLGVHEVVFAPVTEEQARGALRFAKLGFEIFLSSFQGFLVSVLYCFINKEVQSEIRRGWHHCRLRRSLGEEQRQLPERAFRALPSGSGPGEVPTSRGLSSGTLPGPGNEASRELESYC", "assay": "Agonist activity on human GIPR, CRE-luciferase reporter assay (increase in intracellular cAMP as indicator)", "format": "cell-based", "how_it_was_run": "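CHO-K1 cells carrying CRE-luciferase and stably expressing human GIPR, 5×10^3 cells/well, exposed to compound for 4 hours at 37° C.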"}, "[2]": {"test_system": "morphine (0.6 mg/kg, s.c.)-induced emesis in ferrets", "assay": "Morphine-induced acute emetic model in male ferrets", "format": "in vivo, ferret", "how_it_was_run": "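Male ferrets (4 per group) received peptide at 10 or 30 nmol/kg s.c. in 0.09% Tween 80/10% DMSO/saline, or vehicle. Morphine 0.6 mg/kg s.c. was given 4 or 120 h later, and abdominal contractions, vomiting, licking and fidgeting were recorded for up to 360 min.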"}, "[3]": {"molecular_target": "human GLP-1R (Homo sapiens, UniProt P43220)", "sequence (P43220 24-463)": "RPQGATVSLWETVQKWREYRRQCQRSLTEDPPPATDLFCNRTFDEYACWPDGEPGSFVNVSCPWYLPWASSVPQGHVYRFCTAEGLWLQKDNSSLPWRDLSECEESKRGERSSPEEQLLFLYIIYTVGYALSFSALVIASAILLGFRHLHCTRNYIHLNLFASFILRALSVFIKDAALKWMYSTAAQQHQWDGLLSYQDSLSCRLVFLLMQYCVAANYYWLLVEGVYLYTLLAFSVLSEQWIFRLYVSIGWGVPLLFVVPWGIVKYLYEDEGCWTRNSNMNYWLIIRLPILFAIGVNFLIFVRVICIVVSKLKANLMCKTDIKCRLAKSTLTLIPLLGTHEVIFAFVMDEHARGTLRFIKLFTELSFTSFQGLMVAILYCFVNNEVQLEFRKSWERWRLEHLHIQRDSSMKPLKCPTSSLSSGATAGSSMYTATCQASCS", "assay": "Agonist activity on human GLP-1R, CRE-luciferase reporter assay (increase in intracellular cAMP as indicator)", "format": "cell-based", "parameters": "expressed in transfected cells", "conditions": "hGLP-1R/CRE-luc/CHO-K1 cells, 4 h incubation; read-out: GLP1R EC50 nM (B)", "excerpt": "The human GIPR gene having an identical sequence to Genebank Accession No. U39231 is cloned into a pMSRα-neo vector to prepare hGIPR/pMSRα-neo.\n(3) Construction of Reporter Plasmid\nFour copies of a cAMP responsive sequence and a Zeocin resistance gene are transferred to pGL3(R2.2)-Basic Vector (Promega) to construct a Cre-luc(Zeo) reporter plasmid.\n(5) Construction of Expression Plasmid of Human GLP-1R Gene\nThe human GLP-1R gene having an identical sequence to Genebank Accession No. NM_002062 is cloned into a pIRESneo3 vector to prepare hGLP-1/pIRESneo3.\n(6) Transfer of Human GLP-1R Gene and Reporter Plasmid to CHO-K1 Cell and Obtaining of Expressing Cell\nThe Cre-luc (Zeo) obtained in (3) and the plasmid hGLP-1/pIRESneo3 obtained in (5) transferred to the CHO-K1 cell to obtain a transformant. Subsequently, the cell line inducing the luciferase expression, hGLP-1R/CRE-luc/CHO-K1 cell, is selected from the obtained transformant by adding GLP-1.\nThe GLP-1R agonist activity is assayed in the same manner as above using the hGLP-1R/CRE-luc/CHO-K1 cell."}, "[4]": {"conditions": "ferret, morphine 0.6 mg/kg s.c. 0.5 h after drug, 128 μg/kg s.c."}, "[5]": {"conditions": "ferret, morphine 0.6 mg/kg s.c. 0.5 h after drug, 128 μg/kg s.c., non-responders counted as 30 min"}},
  "data": [
    {"compound": "CC[C@H](C)[C@H](NC(=O)[C@H](CO)NC(=O)[C@H](Cc1ccc(O)cc1)NC(=O)[C@H](CC(=O)O)NC(=O)[C@H](CO)NC(=O)[C@@H](NC(=O)[C@H](Cc1ccccc1)NC(=O)[C@@H](NC(=O)CNC(=O)[C@@H]1CCCN1C(=O)[C@H](C)NC(=O)[C@@H](N)Cc1ccc(O)cc1)[C@@H](C)O)[C@@H](C)CC)C(=O)N[C@@H](C)C(=O)N[C@@H](CCSC)C(=O)N[C@@H](CC(=O)O)C(=O)N[C@@H](CCCCN)C(=O)N[C@H](C(=O)N[C@@H](Cc1c[nH]cn1)C(=O)N[C@@H](CCC(N)=O)C(=O)N[C@@H](CCC(N)=O)C(=O)N[C@@H](CC(=O)O)C(=O)N[C@@H](Cc1ccccc1)C(=O)N[C@H](C(=O)N[C@@H](CC(N)=O)C(=O)N[C@@H](Cc1c[nH]c2ccccc12)C(=O)N[C@@H](CC(C)C)C(=O)N[C@@H](CC(C)C)C(=O)N[C@@H](C)C(=O)N[C@@H](CCC(N)=O)C(=O)N[C@@H](CCCCN)C(=O)N1CCC[C@H]1C(=O)N[C@@H](CO)C(=O)N[C@@H](CO)C(=O)NCC(=O)N[C@@H](C)C(=O)N1CCC[C@H]1C(=O)N1CCC[C@H]1C(=O)N1CCC[C@H]1C(=O)N[C@@H](CO)C(N)=O)C(C)C)[C@@H](C)CC", "note": "[Compound 12]", "values": [
      {"measurement": "Selectivity Ratio (B/A)", "setting": "[1]; GLP1R EC50 / GIPR EC50", "value": ">23,810"},
      {"measurement": "EC50", "setting": "[1]; hGIPR/CRE-LUC/CHO-K1 cells, 4 h incubation, read-out: GIPR EC50 nM (A)", "value": 0.042, "unit": "nM"},
      {"measurement": "Emesis: Duration", "setting": "[2]; [4]", "value": "1.5 ± 2.4", "unit": "min"},
      {"measurement": "Emesis: Frequency", "setting": "[2]; [4]", "value": "3.8 ± 5.7"},
      {"measurement": "Emesis: No. of animals (responder/used)", "setting": "[2]; [4]", "value": "2/4"},
      {"measurement": "Fidget: Duration", "setting": "[2]; [4]", "value": "1.3 ± 1.9", "unit": "min"},
      {"measurement": "Fidget: Frequency", "setting": "[2]; [4]", "value": "0.8 ± 1.0"},
      {"measurement": "Fidget: No. of animals (responder/used)", "setting": "[2]; [4]", "value": "2/4"},
      {"measurement": "Licking: Duration", "setting": "[2]; [4]", "value": "1.5 ± 1.7", "unit": "min"},
      {"measurement": "Licking: Frequency", "setting": "[2]; [4]", "value": "1.3 ± 1.0"},
      {"measurement": "Licking: No. of animals (responder/used)", "setting": "[2]; [4]", "value": "3/4"},
      {"measurement": "Retching: Duration", "setting": "[2]; [4]", "value": "1.5 ± 2.4", "unit": "min"},
      {"measurement": "Retching: Frequency", "setting": "[2]; [4]", "value": "3.3 ± 5.3"},
      {"measurement": "Retching: No. of animals (responder/used)", "setting": "[2]; [4]", "value": "2/4"},
      {"measurement": "Vomiting: Duration", "setting": "[2]; [4]", "value": "0.5 ± 0.6", "unit": "min"},
      {"measurement": "Vomiting: Frequency", "setting": "[2]; [4]", "value": "0.5 ± 0.6"},
      {"measurement": "Vomiting: No. of animals (responder/used)", "setting": "[2]; [4]", "value": "2/4"},
      {"measurement": "Emesis: Latency", "setting": "[2]; [5]", "value": "18.3 ± 13.7", "unit": "min"},
      {"measurement": "Fidget: Latency", "setting": "[2]; [5]", "value": "18.3 ± 13.7", "unit": "min"},
      {"measurement": "Licking: Latency", "setting": "[2]; [5]", "value": "13.8 ± 11.3", "unit": "min"},
      {"measurement": "Retching: Latency", "setting": "[2]; [5]", "value": "18.3 ± 13.7", "unit": "min"},
      {"measurement": "Vomiting: Latency", "setting": "[2]; [5]", "value": "19.5 ± 12.1", "unit": "min"},
      {"measurement": "Attenuation of morphine-induced emesis (in words)", "setting": "[2]; male ferrets, 30 nmol/kg s.c. 30 minutes before morphine 0.6 mg/kg s.c.", "value": "completely attenuated"},
      {"measurement": "Comment: Anti-Emetic Activity (inhibition) on morphine-induced emesis", "setting": "[2]; male ferrets, summary of the morphine experiments", "value": "partial inhibition"},
      {"measurement": "EC50", "setting": "[3]", "value": "> 1000", "unit": "nM"}
    ]}
  ]
}
